Patent US20250115557A1, “TOTAL SYNTHESES OF SELENONEINE, ISO-SELENONEINE, AND ISOMERS” (UNIVERSITÉ LAVAL, priority 2022, published 2025)
Like-named read-outs stand apart in the source and are kept apart here.

Tests used:
[1] = system: K562-S human leukemia cell line; assay: Preliminary experiments: concentration of toxicant decreasing cell survival by 50%; format: cell-based; settings: K562 cells
Experimental: (§1) In vitro protection assays against either methylmercury chloride (MeHgCl) or tert-butyl hydroperoxide (t-BuOOH) were conducted with the K562-S human leukemia cell line (REF #CRL-3343™) obtained from the American Type Culture Collection (ATCC). Cells were cultured in Gibco RPMI 1640 complete growth medium with L-Glutamine (REF #31800-105), NaHCO3 (2 g/L), 10% FBS (REF #080-750), 2% antibiotic-antimycotic from Gibco (REF #15240-062), pH 7.4, and maintained at 37° C. in a 5% CO2 incubator and protected from light.
(§2) An uptake induction step, in a saline buffer containing 125 mM of NaCl; 25 mM of HEPES-NaOH (pH 7.4); 5.6 mM of D(+)-glucose; 4.8 mM KCl; 1.2 mM of KH2PO4; 1.2 mM of CaCl2; and 1.2 mM of MgSO4, was performed prior to adding selenoneine or ergothioneine to the cell medium.^[22,23] Cells were resuspended in triplicate and pre-incubated in the saline buffer at a density of 2×10^6 cells/mL for 20 minutes at 37° C. under slight agitation. Cells were then incubated during 4 hours in the same buffer and conditions but supplemented with the protective agent of interest—either ergothioneine or selenoneine—in the presence of 0.15 mM of reduced glutathione (GSH). […] Results are expressed as the mean±standard error of the mean of triplicates. […]

[2] = system: human erythroid K562 cells; assay: Protection against MeHgCl induced cytotoxicity, trypan blue viability exclusion test; format: cell-based; settings: for Viability of cells exposed to MeHgCl: 5 μM MeHgCl overnight (18h), protective agent 2.5-150 μM, 4 h pre-incubation, FIG. 4
Experimental: (§3) Since selenoneine is the analog of the well-known natural antioxidant and cytoprotectant ergothioneine, its capacity as an antioxidant and cytoprotectant was assessed. To that effect, the capacity of selenoneine to protect cells against the cytotoxic effects induced by t-butyl hydroperoxide (t-BuOOH) and methylmercury chloride (MeHgCl) was assessed. Human erythroid K562 cells expressing the ergothioneine transporter (OCTN1) were exposed to the IC50 values of t-BuOOH and MeHgCl respectively, in the presence of increasing concentrations of either selenoneine or ergothioneine. The cell viability was subsequently assessed using the trypan blue viability exclusion test.^[20]
as §1
An uptake induction step, in a saline buffer containing 125 mM of NaCl; 25 mM of HEPES-NaOH (pH 7.4); 5.6 mM of D(+)-glucose; 4.8 mM KCl; 1.2 mM of KH2PO4; 1.2 mM of CaCl2; and 1.2 mM of MgSO4, was performed prior to adding selenoneine or ergothioneine to the cell medium.^[22,23] Cells were resuspended in triplicate and pre-incubated in the saline buffer at a density of 2×10^6 cells/mL for 20 minutes at 37° C. under slight agitation. Cells were then incubated during 4 hours in the same buffer and conditions but supplemented with the protective agent of interest—either ergothioneine or selenoneine—in the presence of 0.15 mM of reduced glutathione (GSH). Concentrations of protective agents, either ergothioneine or selenoneine, used for these experiments were 2.5, 5, 25, 50, 100, and 150 μM (FIGS. 3 and 4). Cells were then washed twice in cold phosphate-buffered saline (PBS) and resuspended in complete RPMI growth medium and divided into two groups at a density of 1×10^6 cells/mL. One group of cells remained untreated (control group) while the other group was treated with either 830 μM of t-BuOOH, or 5 μM of MeHgCl. These concentrations were determined to decrease cell survival by 50% in preliminary experiments (IC50 values). Cells were then incubated at 37° C. under slight agitation over a period of one (1) hour in the case of t-BuOOH, or overnight (18h) for MeHgCl. The cells were then washed twice in cold PBS before being resuspended in complete RPMI growth medium at a density of 5×10^5 cells/mL. The trypan blue viability exclusion test was then conducted using a Hausser Scientific™ Bright-Line™ Phase Hemacytometer. Viable cells (%)=[total number of viable cells per mL of aliquot/total number of cells per mL of aliquot]×100.^[20] Results are expressed as the mean±standard error of the mean of triplicates. These experiments were repeated twice, and similar results were obtained.

[3] = system: human erythroid K562 cells; format: cell-based; settings: for Viability of cells exposed to t-BuOOH: 830 μM t-BuOOH 1 h, protective agent 2.5-150 μM, 4 h pre-incubation, FIG. 3
Experimental: as §3, §1
as §2, with “(GSH). Concentrations of protective agents, either ergothioneine or selenoneine, used for these experiments were 2.5, 5, 25, 50, 100, and 150 μM (FIGS. 3 and 4).” for “(GSH).”

[4] = S at C-5 (ovothiols) versus S at C-2 (ergothioneine); cited from earlier work

[CH3][Hg][Cl] [MeHgCl, methylmercury chloride]
IC50 [1]: 5 µM

C[N+](C)(C)[C@@H](Cc1c[nH]c(=S)[nH]1)C(=O)[O-] [ergothioneine]
Viability of cells exposed to MeHgCl [2]: increased with increasing concentrations | Cell viability versus control groups at concentrations of 150 μM or higher ([2]; 5 μM MeHgCl, K562 cells, protective agent 150 μM or higher): did not result in cell viabilities comparable to those of the control groups | Viability of cells exposed to t-BuOOH [3]: increased with increasing concentrations | pKa value [4]: 8.7

C[N+](C)(C)[C@@H](Cc1c[nH]c(=[Se])[nH]1)C(=O)[O-] [selenoneine, (S)-3-(2-selenoxo-2,3-dihydro-1H-imidazol-4-yl)-2-(trimethylammonio) propanoate]
Viability of cells exposed to MeHgCl [2]: increased with increasing concentrations | Concentration resulting in cell viabilities comparable to those of the control groups ([2]; 5 μM MeHgCl, K562 cells): ≥ 100 µM | Protective effect against MeHgCl induced cytotoxicity, comparison ([2]; 5 μM MeHgCl, K562 cells): greater protective effect relative to ergothioneine | Viability of cells exposed to t-BuOOH [3]: increased with increasing concentrations | Concentration resulting in cell viabilities comparable to those of the control groups ([3]; 830 μM t-BuOOH, K562 cells): ≥ 100 µM

CC(C)(C)OO [t-BuOOH, t-butyl hydroperoxide]
IC50 ([1]; Homo sapiens): 830 µM
